The source of these data is patent US20150210641A1, “NOVEL CYTOCHROME P450 INHIBITORS AND THEIR METHOD OF USE” (CORTENDO AB (PUBL), priority 2014, published 2015).

pIC50: −log10 of the molar value.

Common to all, as to assay type: cell-based
One assay deals with T1, recombinant CYP-17 (Homo sapiens, UniProt P05093).
T1 construct: expressed in transfected cells
T1 sequence (P05093 1-508): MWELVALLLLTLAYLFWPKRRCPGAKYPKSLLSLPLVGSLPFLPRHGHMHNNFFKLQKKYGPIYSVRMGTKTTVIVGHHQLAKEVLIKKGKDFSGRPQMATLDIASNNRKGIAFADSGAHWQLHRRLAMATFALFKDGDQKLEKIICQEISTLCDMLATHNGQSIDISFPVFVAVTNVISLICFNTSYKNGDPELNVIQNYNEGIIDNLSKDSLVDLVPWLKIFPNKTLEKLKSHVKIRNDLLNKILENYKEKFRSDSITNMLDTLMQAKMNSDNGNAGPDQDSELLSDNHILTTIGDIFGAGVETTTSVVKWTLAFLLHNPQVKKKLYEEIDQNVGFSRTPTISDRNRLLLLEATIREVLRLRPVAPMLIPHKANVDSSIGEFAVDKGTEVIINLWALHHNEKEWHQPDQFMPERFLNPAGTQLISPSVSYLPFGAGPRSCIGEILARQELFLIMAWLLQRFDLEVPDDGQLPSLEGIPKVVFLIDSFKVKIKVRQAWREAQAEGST
Nature of the assay: Cyp17 assay: 3H-acetic acid release from [21-3H] 17α-hydroxyl-Pregnenolone in AD293 cells. Conditions: AD293 cells stably over-expressing recombinant CYP-17; eight concentrations 10 μM to 4.5 nM. As for the experimental part: Cyp17 assay protocol: AD293 cells that stably over-express recombinant CYP-17 were seeded in 96 well plates coated with poly D-lysine (15,000 cell per well) and incubated at 37° C. for 24 hours in Dulbecco's Modified Eagle Medium (DMEM) with Fetal Bovine Serum (FBS) that is stripped of hormones by charcoal treatment. The media is then removed, the cells are washed once with Phosphate buffer saline solution, and 50 μL Dulbecco's Modified Eagle Medium (DMEM) with Fetal Bovine Serum (FBS) that is stripped of hormones by charcoal treatment is added. Compounds of the disclosure are then added to the wells in eight concentration spanning 10 μM to 4.5 nM, and the plates are incubated for an additional 60 minutes at 37° C. [21-^3H] 17α-hydroxyl-Pregnenolone is then added (50 nCi per well, 31.25 nM) and the plates are incubated for an additional 4 hours at 37° C. The media is then collected, 200 μL of chloroform is added, and the mixture is shaken for 1 hour. The aqueous layer is then separated and analyzed for the presence of ^3H-acetic acid using a Perkin Elmer Topcount NXT to determine IC50s of the compounds of the disclosure.

Another assay has as its target T2, recombinant CYP-11 (Homo sapiens, UniProt P15538).
T2 construct: expressed in transfected cells
T2 sequence (P15538 25-503): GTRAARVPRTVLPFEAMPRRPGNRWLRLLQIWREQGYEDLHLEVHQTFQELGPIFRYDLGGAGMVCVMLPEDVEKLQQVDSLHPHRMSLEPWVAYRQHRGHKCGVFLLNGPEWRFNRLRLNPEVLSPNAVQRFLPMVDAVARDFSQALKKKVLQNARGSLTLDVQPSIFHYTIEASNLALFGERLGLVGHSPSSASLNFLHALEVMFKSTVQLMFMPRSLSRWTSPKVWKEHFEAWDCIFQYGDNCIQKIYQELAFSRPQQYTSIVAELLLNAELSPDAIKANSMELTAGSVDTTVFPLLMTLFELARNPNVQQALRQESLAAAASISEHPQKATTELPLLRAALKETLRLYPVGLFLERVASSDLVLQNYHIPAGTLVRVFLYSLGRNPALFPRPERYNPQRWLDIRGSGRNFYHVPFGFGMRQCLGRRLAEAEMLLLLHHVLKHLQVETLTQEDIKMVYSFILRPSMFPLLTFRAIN
Description: Cyp11 assay: cortisol formation from 11-deoxycortisol in AD293 cells, LC/MS. Conditions: AD293 cells stably over-expressing recombinant CYP-11; eight concentrations 10 μM to 4.5 nM. As for the experimental part: Cyp11 assay protocol: AD293 cells that stably over-express recombinant CYP-11 were seeded in 96 well plates coated with poly D-lysine (15,000 cell per well) and incubated at 37° C. for 24 hours in Dulbecco's Modified Eagle Medium (DMEM) with Fetal Bovine Serum (FBS) that is stripped of hormones by charcoal treatment. The media is then removed, the cells are washed once with Phosphate buffer saline solution, and 50 μL Dulbecco's Modified Eagle Medium (DMEM) with Fetal Bovine Serum (FBS) that is stripped of hormones by charcoal treatment is added. Compounds of the disclosure are then added to the wells in eight concentration spanning 10 μM to 4.5 nM, and the plates are incubated for an additional 60 minutes at 37° C. 11-deoxycortisol is then added ([…]) and the plates are incubated for an additional 12 hours at 37° C. After incubation, 50 uL of the supernatant (medium) is transferred into a fresh plate and 150 uL of an acetonitrile solution containing 200 ng/ml of Telmisartan is added. The sample is mixed and then placed in a centrifuge at 2000 rpm for 5 minutes. 100 uL of the supernatant is transferred into a fresh 96 well deep well plate, 100 uL of 1:1 methanol: water was added, the solution was mixed and then analyzed by LC/MS for the presence of cortisol using an Agilent 1200 RRLC/ABSCIEX API4000 LC-MS or Shimadzu Prominance/ABSCIEX API4000 LC-MS to determine IC50s of the compounds of the disclosure.

The next assay has as its target T3, recombinant CYP-21 (Homo sapiens, UniProt P08686).
T3 construct: expressed in transfected cells
T3 sequence (P08686 1-495): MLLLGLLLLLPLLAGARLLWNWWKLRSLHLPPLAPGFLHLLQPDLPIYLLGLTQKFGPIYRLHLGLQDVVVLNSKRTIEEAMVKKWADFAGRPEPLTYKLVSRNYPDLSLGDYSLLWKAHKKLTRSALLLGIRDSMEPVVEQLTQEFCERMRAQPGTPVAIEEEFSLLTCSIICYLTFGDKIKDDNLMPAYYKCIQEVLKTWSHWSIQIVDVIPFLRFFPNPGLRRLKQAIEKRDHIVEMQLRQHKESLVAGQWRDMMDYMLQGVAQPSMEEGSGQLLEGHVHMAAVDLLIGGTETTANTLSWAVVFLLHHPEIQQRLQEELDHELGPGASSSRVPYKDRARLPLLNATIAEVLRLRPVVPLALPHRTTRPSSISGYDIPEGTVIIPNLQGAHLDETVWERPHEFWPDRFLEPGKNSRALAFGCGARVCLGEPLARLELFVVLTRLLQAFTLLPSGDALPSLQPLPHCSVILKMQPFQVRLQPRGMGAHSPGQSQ
Description: Cyp21 assay: 11-deoxycortisol formation from 17-OH Progesterone in AD293 cells, LC/MS. Particulars: AD293 cells stably over-expressing recombinant CYP-21; eight concentrations 10 μM to 4.5 nM. As for the experimental part:
Cyp21 assay protocol: AD293 cells that stably over-express recombinant CYP-21 were seeded in 96 well plates coated with poly D-lysine (10,000 cell per well) and incubated at 37° C. for 24 hours in Dulbecco's Modified Eagle Medium (DMEM) with Fetal Bovine Serum (FBS) that is stripped of hormones by charcoal treatment. The media is then removed, the cells are washed once with Phosphate buffer saline solution, and 50 μL Dulbecco's Modified Eagle Medium (DMEM) with Fetal Bovine Serum (FBS) that is stripped of hormones by charcoal treatment is added. Compounds of the disclosure are then added to the wells in eight concentration spanning 10 μM to 4.5 nM, and the plates are incubated for an additional 60 minutes at 37° C. 17-OH Progesterone is then added ([…]) and the plates are incubated for an additional 45 minutes at 37° C. After incubation, 50 uL of the supernatant (medium) is transferred into a fresh plate and 150 uL of an acetonitrile solution containing 200 ng/ml of Telmisartan is added. The sample is mixed and then placed in a centrifuge at 2000 rpm for 5 minutes.

Regarding `COc1ccc(-c2ccc(C(F)(F)c3ccncc3)cc2)cc1OC` [Entry 8], the pIC50 at recombinant CYP-17 was 7.47; on recombinant CYP-11 it was no more than 5.00; at recombinant CYP-21, 6.39.

As to `COc1cc(F)ccc1-c1ccc(C(c2ccncc2)N2CCOCC2)cc1` (stereo not drawn) [Entry 17, 4-((4′-fluoro-2′-methoxy-[1,1′-biphenyl]-4-yl)(pyridin-4-yl)methyl)morpholine], the values for the pIC50 on recombinant CYP-17, on recombinant CYP-11 and at recombinant CYP-21 were 7.55, no more than 5.00 and no more than 5.00, respectively.

Take `COc1cccc(-c2ccc(C(c3ccncc3)N3CCCCC3)cc2)c1` (stereo not drawn) [Entry 31, 4-((3′-methoxy-[1,1′-biphenyl]-4-yl)(piperidin-1-yl)methyl)pyridine]: the pIC50 on recombinant CYP-17 was 7.57; on recombinant CYP-11 it was no more than 5.00; at recombinant CYP-21 it was 5.62.

For `COc1cc(F)ccc1-c1ccc(C(c2ccncc2)N2CCN(C3CCCC3)CC2)cc1` (stereo not drawn) [Entry 21, 1-cyclopentyl-4-((4′-fluoro-2′-methoxy-[1,1′-biphenyl]-4-yl)(pyridin-4-yl)methyl)piperazine], the results for the pIC50 on recombinant CYP-17, on recombinant CYP-11 and at recombinant CYP-21 were 6.05, no more than 5.00 and no more than 5.00, respectively.

In the case of `COc1cc(F)ccc1-c1ccc(C(c2ccncc2)N2CCN(c3ccccn3)CC2)cc1` (stereo not drawn) [Entry 23, 1-((4′-fluoro-2′-methoxy-[1,1′-biphenyl]-4-yl)(pyridin-4-yl)methyl)-4-(pyridin-2-yl)piperazine], the pIC50 at recombinant CYP-17 was 7.37; on recombinant CYP-11 it was no more than 5.00; at recombinant CYP-21 it was no more than 5.00.

Regarding `COc1cc(F)ccc1-c1ccc(C(OC)c2ccncc2)cc1` (stereo not drawn) [Entry 33, 4-((4′-fluoro-2′-methoxy-[1,1′-biphenyl]-4-yl)(methoxy)methyl)pyridine], the results for the pIC50 at recombinant CYP-17, at recombinant CYP-11 and on recombinant CYP-21 were no more than 5.00, no more than 5.00 and 6.28, respectively.

As to `COc1cc(F)ccc1-c1ccc(C(c2ccncc2)N2CCN(C(C)=O)CC2)cc1` (stereo not drawn) [Entry 27, 1-(4-((4′-fluoro-2′-methoxy-[1,1′-biphenyl]-4-yl)(pyridin-4-yl)methyl)piperazin-l-yl)ethanone], the pIC50 on recombinant CYP-17 was 7.66; at recombinant CYP-11, no more than 5.00; at recombinant CYP-21, no more than 5.00.

Consider `COc1cc(F)ccc1-c1ccc(C(F)(F)c2ccncc2)cc1` [Entry 2, 4-[Difluoro-(4′-fluoro-2′-methoxy-biphenyl-4-yl)-methyl]-pyridine], for which the pIC50 at recombinant CYP-17 was 5.66; on recombinant CYP-11 it was no more than 5.00; at recombinant CYP-21, 6.63.

As for `COc1cc(F)ccc1-c1ccc(C(F)c2ccncc2)cc1` (stereo not drawn) [Entry 1, 4-[Fluoro-(4′-fluoro-2′-methoxy-biphenyl-4-yl)-methyl]-pyridine], the pIC50 was 6.66 on recombinant CYP-17, no more than 5.00 at recombinant CYP-11 and 5.82 at recombinant CYP-21.

In the case of `COc1cc(F)ccc1-c1ccc(C(c2ccncc2)N2CCN(c3ccccc3C#N)CC2)cc1` (stereo not drawn) [Entry 24, 2-(4-((4′-fluoro-2′-methoxy-[1,1′-biphenyl]-4-yl)(pyridin-4-yl)methyl)piperazin-1-yl)benzonitrile], the pIC50 on recombinant CYP-17 was 6.72; at recombinant CYP-11, no more than 5.00; at recombinant CYP-21, no more than 5.00.

As to `COc1cccc(-c2ccc(C(c3ccncc3)N3CCNCC3)cc2)c1` (stereo not drawn) [Entry 32, 1-((3′-methoxy-[1,1′-biphenyl]-4-yl)(pyridin-4-yl)methyl)piperazine], the pIC50 is 5.93 at recombinant CYP-17, no more than 5.00 at recombinant CYP-11 and no more than 5.00 on recombinant CYP-21.

For the molecule `COc1cccc(-c2ccc(C(OC)c3ccncc3)cc2)c1` (stereo not drawn) [Entry 34, 4-(methoxy(3′-methoxy-[1,1′-biphenyl]-4-yl)methyl)pyridine], the pIC50 at recombinant CYP-17 was 6.29; on recombinant CYP-11 it was 6.32; on recombinant CYP-21, 6.21.

In the case of `COc1cc(F)ccc1-c1ccc(C(c2ccncc2)N2CCNCC2)cc1` (stereo not drawn) [Entry 30, 1-((4′-fluoro-2′-methoxy-[1,1′-biphenyl]-4-yl)(pyridin-4-yl)methyl)piperazine], the negative logarithm of the IC50 (pIC50) was 6.00 on recombinant CYP-17, no more than 5.00 at recombinant CYP-11 and no more than 5.00 at recombinant CYP-21.

For `COc1cc(F)ccc1-c1ccc(C(NCCN)c2ccncc2)cc1` (stereo not drawn) [Entry 26, N1-((4′-fluoro-2′-methoxy-[1,1′-biphenyl]-4-yl)(pyridin-4-yl)methyl)ethane-1,2-diamine], the pIC50 at recombinant CYP-17 is 6.92; at recombinant CYP-11, no more than 5.00; on recombinant CYP-21, no more than 5.00.

On to `COc1cc(F)ccc1-c1ccc(C(c2ccncc2)N2CCCC2)cc1` (stereo not drawn) [Entry 19, 4-((4′-fluoro-2′-methoxy-[1,1′-biphenyl]-4-yl)(pyrrolidin-1-yl)methyl)pyridine], for which the pIC50 on recombinant CYP-17 is 6.60; at recombinant CYP-11, no more than 5.00; at recombinant CYP-21, no more than 5.00.

For the molecule `COc1cc(F)ccc1-c1ccc(C(c2ccncc2)N2CCCCC2)cc1` (stereo not drawn) [Entry 18, 4-((4′-fluoro-2′-methoxy-[1,1′-biphenyl]-4-yl)(piperidin-1-yl)methyl)pyridine], the pIC50 on recombinant CYP-17 was 6.11; on recombinant CYP-11, no more than 5.00; at recombinant CYP-21, no more than 5.00.

By pIC50 is commonly meant the negative decadic logarithm of the IC50, by convention in mol/L.
